According to US11534441B2, “MAP4K1 inhibitors” (Blueprint Medicines Corporation, priority 2020, dated 2022):

Columns and labels:
MAP4K1 (HPK1) = MAP4K1 (HPK1) (Homo sapiens (Human), UniProt Q92918); assay: MAP4K1 (HPK1) biochemical enzymatic activity, electrophoretic mobility shift (EZReader 2), ATP at APPKM (26 μM)
Method in brief: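 Enzyme at 0.1-15 nM was incubated with 1.5 μM fluorescent peptide and ATP at the apparent Km (26 μM) in HEPES pH 7.5, MgCl2, DTT and Brij 35. The reaction ran at 25° C for 60-180 min with a 10-point, 4-fold compound series (1% DMSO) and was stopped with EDTA. Substrate and product peptides were resolved by microfluidic mobility shift, and their peak ratio gave activity.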

expanded CD3+ T cells = assay: T cell enhancement of cytokines: IL2 measurement (HTRF) in expanded CD3+ T cells stimulated with anti-CD3/anti-CD28; format: cell-based, human; settings: IL-2 measurement
Protocol: T cells are isolated from whole blood of healthy donors by immunomagnetic negative selection following manufacture's protocol (StemCell Technologies, human T cell isolation kit). Purity of isolated cells is assessed by flow cytometry and yields 95-98% CD3^+ T cells. For expansion of T cells, 1×10^6 cells/well are plated in serum free cell expansion media (ThermoFisher) containing 30 U of recombinant human IL2 (R&D) and stimulated with 25 ul of CD3/CD28 beads (Invitrogen) in 24 well plates for 3-4 days. T cells are then expanded in 175 cm flasks and maintained at a cell density of 1 to 2.5×10^6 cells/ml days by addition of ⅔ of fresh media every 2-3 days. After 10-14 days, cells are frozen in BamBanker freezing media (Thermo) and stored in liquid nitrogen.
For IL2 measurement, expanded CD3^+ T cells are dispensed at 100K cells/well (cultured in X-VIVO 10 Serum-free media) and are stimulated with plate-bound anti-CD3 and soluble anti-CD28 in the presence of vehicle or compound of the disclosure at various concentrations for 24 h. As outlined in the manufacturer's protocol (Cisbio), 16 μL of conditioned media is transferred to a white 384-well low volume plate. Following a 24 h incubation with the anti-IL2 antibodies, the homogenous time resolved fluorescence (HTRF) is measured.

[1] = Homo sapiens, T-cell, class designation
[2] = Homo sapiens, T-cell, numeric value

Sequence of MAP4K1 (HPK1) (Q92918 whole entry): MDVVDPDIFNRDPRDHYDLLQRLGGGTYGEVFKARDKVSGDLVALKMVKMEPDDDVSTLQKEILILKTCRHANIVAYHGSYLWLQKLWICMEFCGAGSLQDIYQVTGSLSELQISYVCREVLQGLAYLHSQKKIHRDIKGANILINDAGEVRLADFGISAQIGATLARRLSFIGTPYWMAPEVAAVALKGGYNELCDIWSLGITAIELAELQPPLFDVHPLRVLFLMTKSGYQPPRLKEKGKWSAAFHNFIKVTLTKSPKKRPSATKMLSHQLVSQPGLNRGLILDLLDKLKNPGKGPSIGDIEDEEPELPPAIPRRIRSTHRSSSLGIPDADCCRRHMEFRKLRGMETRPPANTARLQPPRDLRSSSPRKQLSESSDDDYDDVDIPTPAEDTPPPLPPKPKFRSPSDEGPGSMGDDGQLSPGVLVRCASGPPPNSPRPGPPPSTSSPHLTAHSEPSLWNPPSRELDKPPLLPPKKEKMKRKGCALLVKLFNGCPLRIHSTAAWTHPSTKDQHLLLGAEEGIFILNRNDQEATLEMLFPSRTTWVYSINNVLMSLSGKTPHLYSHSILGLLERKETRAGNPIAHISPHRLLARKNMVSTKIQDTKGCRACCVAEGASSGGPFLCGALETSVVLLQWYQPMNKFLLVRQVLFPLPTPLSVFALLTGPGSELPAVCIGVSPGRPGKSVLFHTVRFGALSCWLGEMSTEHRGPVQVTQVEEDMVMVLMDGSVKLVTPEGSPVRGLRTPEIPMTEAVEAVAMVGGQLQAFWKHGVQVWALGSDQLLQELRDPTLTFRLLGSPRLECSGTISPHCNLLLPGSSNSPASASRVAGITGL

IC50 (MAP4K1 (HPK1); class designation) | IC50 (MAP4K1 (HPK1); numeric value) | EC50 (expanded CD3+ T cells; [1]) | EC50 (expanded CD3+ T cells; [2]) | EC50 (expanded CD3+ T cells; class designation) | EC50 (expanded CD3+ T cells; numeric value) | SMILES
< 0.3 nM | 0.22 nM | < 35 nM | 23.7 nM | – | – | CC1(C)Cc2nc(Nc3cc4c(C(C)(C)N)cnc(OCC(F)F)c4cn3)ccc2C(=O)O1 [Compound 73]
< 0.3 nM | 0.12 nM | < 35 nM | 22.2 nM | – | – | CC1(C)Cc2nc(Nc3cc4c([C@](C)(N)C5CC5)cnc(OC5CC5)c4cn3)ccc2C(=O)O1 [Compound 74, R-2-((5-(1-amino-1-cyclopropylethyl)-8-cyclopropoxy-2,7-naphthyridin-3-yl)amino)-7,7-dimethyl-7,8-dihydro-5H-pyrano[4,3-b]pyridin-5-one]
0.31 to 1 nM | 0.65 nM | < 35 nM | 32.5 nM | – | – | CC1(C)Cc2nc(Nc3cc4c(C(C)(C)N)cnc(OCC(F)(F)F)c4cn3)ccc2C(=O)O1 [Compound 77]
< 0.3 nM | 0.19 nM | < 35 nM | 11.6 nM | – | – | C[C@@H]1OC(=O)c2ccc(Nc3cc4c(C(C)(C)N)cnc(OCC(F)(F)F)c4cn3)nc2[C@H]1C [Compound 78]
< 0.3 nM | 0.08 nM | – | – | < 35 nM | 4.1 nM | CC[C@@](C)(N)c1cnc(OC2CC2)c2cnc(Nc3ccc4c(n3)[C@@H](C)[C@H](C)OC4=O)cc12 [Compound 80]
< 0.3 nM | 0.16 nM | < 35 nM | 20.8 nM | – | – | C[C@@H]1OC(=O)c2ccc(Nc3cc4c(C(C)(C)N)cnc(OC5(C)CC5)c4cn3)nc2[C@H]1C [Compound 82]
< 0.3 nM | 0.19 nM | < 35 nM | 28.7 nM | – | – | C[C@@H]1c2nc(Nc3cc4c(C(C)(C)N)cnc(OC5(C)CC5)c4cn3)ccc2C(=O)OC1(C)C [Compound 83]
< 0.3 nM | 0.22 nM | – | – | 35.1 to 45 nM | 36.1 nM | CC[C@](C)(N)c1cnc(OC2(C)CC2)c2cnc(Nc3ccc4c(n3)[C@@H](C)[C@H](C)OC4=O)cc12 [Compound 85]
0.31 to 1 nM | 0.44 nM | – | – | < 35 nM | 31.6 nM | CC[C@](C)(N)c1cnc(OC2(C)CC2)c2cnc(Nc3ccc4c(n3)[C@@H](C)C(C)(C)OC4=O)cc12 [Compound 87]
< 0.3 nM | 0.16 nM | – | – | < 35 nM | 11.5 nM | C[C@@H]1OC(=O)c2ccc(Nc3cc4c([C@@](C)(N)C5CC5)cnc(OC5(C)CC5)c4cn3)nc2[C@H]1C [Compound 88]
< 0.3 nM | 0.1 nM | – | – | < 35 nM | 15.1 nM | C[C@@H]1c2nc(Nc3cc4c([C@](C)(N)C5CC5)cnc(OC5(C)CC5)c4cn3)ccc2C(=O)OC1(C)C [Compound 91]
< 0.3 nM | 0.25 nM | – | – | < 35 nM | 15.4 nM | CC[C@](C)(N)c1cnc(OC2(C)CC2)c2cnc(Nc3ccc4c(n3)[C@@H](C)[C@@H](C)OC4=O)cc12 [Compound 92]
< 0.3 nM | 0.14 nM | – | – | < 35 nM | 23.5 nM | C[C@@H]1c2nc(Nc3cc4c([C@](C)(N)C5CC5)cnc(OC5(C)CC5)c4cn3)ccc2C(=O)O[C@@H]1C [Compound 94]
< 0.3 nM | – | < 35 nM | 9.4 nM | – | – | CC[C@@](C)(N)c1cnc(OC2CC2)c2cnc(Nc3ccc4c(n3)[C@@H](C)[C@@H](C)OC4=O)cc12 [Compound 96]
< 0.3 nM | 0.11 nM | – | – | < 35 nM | 20.8 nM | COc1ncc([C@](C)(N)C2CC2)c2cc(Nc3ccc4c(n3)[C@@H](C)C(C)(C)OC4=O)ncc12 [Compound 101]
1.1 to 10 nM | 1.87 nM | – | – | < 35 nM | 28.7 nM | COc1ncc([C@@](C)(N)C2CC2)c2cc(Nc3ccc4c(n3)[C@@H](C)C(C)(C)OC4=O)ncc12 [Compound 102]
< 0.3 nM | 0.11 nM | < 35 nM | 3.1 nM | – | – | COc1ccc(C(C)(C)N)c2cc(Nc3ccc4c(n3)CC(C)(C)OC4=O)ncc12 [Compound 103]

IC50 (MAP4K1 (HPK1); class designation) | IC50 (MAP4K1 (HPK1); numeric value) | EC50 (expanded CD3+ T cells; [1]) | EC50 (expanded CD3+ T cells; [2]) | EC50 (expanded CD3+ T cells; class designation) | EC50 (expanded CD3+ T cells; numeric value) | SMILES
1.1 to 10 nM | 2.09 nM | 45.1 to 55 nM | 50.6 nM | – | – | CC(C)(N)c1cnc(OC2CC2)c2cnc(Nc3ccc4c(n3)C(C)(C)OC4=O)cc12 [Compound 105]
< 0.3 nM | 0.21 nM | < 35 nM | 9.8 nM | – | – | C[C@@H]1OC(=O)c2ccc(Nc3cc4c(C(C)(C)N)cnc(NC5CC5)c4cn3)nc2[C@H]1C [Compound 109]
0.31 to 1 nM | 0.55 nM | – | – | < 35 nM | 33.9 nM | CC[C@@](C)(N)c1cnc(OC2CC2)c2cnc(Nc3ccc4c(n3)C(C)(C)OC4=O)cc12 [Compound 110]
> 10 nM | 16.8 nM | – | – | > 55 nM | 2660 nM | CC[C@](C)(N)c1cnc(OC2CC2)c2cnc(Nc3ccc4c(n3)C(C)(C)OC4=O)cc12 [Compound 111]
< 0.3 nM | 0.23 nM | < 35 nM | 19.6 nM | – | – | CC(C)(N)c1cnc(OC2CC2)c2cnc(Nc3ccc4c(n3)C(C)(C)COC4=O)cc12 [Compound 112]
0.31 to 1 nM | 0.58 nM | – | – | < 35 nM | 32.7 nM | CC[C@]1(C)OC(=O)c2ccc(Nc3cc4c(C(C)(C)N)cnc(OC5CC5)c4cn3)nc21 [Compound 113]
0.31 to 1 nM | 0.88 nM | – | – | < 35 nM | 25.6 nM | CC[C@@]1(C)OC(=O)c2ccc(Nc3cc4c(C(C)(C)N)cnc(OC5CC5)c4cn3)nc21 [Compound 114]
> 10 nM | 7.39 nM | > 55 nM | 232 nM | – | – | CC(C)(N)c1cnc(OCC(F)(F)F)c2cnc(Nc3ccnc(C(C)(C)F)n3)cc12 [Compound 115]
1.1 to 10 nM | 2.14 nM | > 55 nM | 64.9 nM | – | – | CC(C)(N)c1cnc(OCC(F)F)c2cnc(Nc3ccc4c(n3)C(C)(C)OC4=O)cc12 [Compound 116]
< 0.3 nM | 0.2 nM | < 35 nM | 7.6 nM | – | – | C[C@@H]1c2nc(Nc3cc4c(C(C)(C)N)cnc(NC5CC5)c4cn3)ccc2C(=O)OC1(C)C [Compound 123]
< 0.3 nM | 0.24 nM | < 35 nM | 7.4 nM | – | – | C[C@@H]1OC(=O)c2ccc(Nc3cc4c(C(C)(C)N)cnc(NC5CCC5)c4cn3)nc2[C@H]1C [Compound 124]
< 0.3 nM | 0.17 nM | – | – | < 35 nM | 21 nM | C[C@H]1OC(=O)c2ccc(Nc3cc4c(C(C)(C)N)cnc(OC5CC5)c4cn3)nc2C1(C)C [Compound 127]
0.31 to 1 nM | 0.46 nM | – | – | 35.1 to 45 nM | 35.2 nM | CC[C@](C)(N)c1cnc(OC2CC2)c2cnc(Nc3ccc4c(n3)[C@@H](C)[C@H](C)OC4=O)cc12 [Compound 131]
1.1 to 10 nM | 5.86 nM | – | – | 45.1 to 55 nM | 53.8 nM | CC[C@](C)(N)c1cnc(OC2CC2)c2cnc(Nc3ccc4c(n3)CC(C)(C)OC4=O)cc12 [Compound 133]
0.31 to 1 nM | 0.54 nM | < 35 nM | 31.6 nM | – | – | CC1(C)Cc2nc(Nc3cc4c(C(C)(C)N)cnc(OC5(C)CC5)c4cn3)ccc2C(=O)O1 [Compound 135]
0.31 to 1 nM | 0.39 nM | – | – | 35.1 to 45 nM | 40.5 nM | CC[C@@](C)(N)c1cnc(OC2CC2)c2cnc(Nc3ccc4c(n3)C(C)(C)COC4=O)cc12 [Compound 136]
